These compounds were tested against human NaV 1.8 (Homo sapiens, UniProt Q9Y5Y9) (assay: E-VIPR assay for detecting and measuring NaV inhibition properties). Conditions: E-VIPR assay conducted in the presence of human serum; HEK cells expressing truncated human NaV 1.8; read-out: IC50.
Sequence of human NaV 1.8 (Q9Y5Y9 whole entry, looked up, the tested form may be a part): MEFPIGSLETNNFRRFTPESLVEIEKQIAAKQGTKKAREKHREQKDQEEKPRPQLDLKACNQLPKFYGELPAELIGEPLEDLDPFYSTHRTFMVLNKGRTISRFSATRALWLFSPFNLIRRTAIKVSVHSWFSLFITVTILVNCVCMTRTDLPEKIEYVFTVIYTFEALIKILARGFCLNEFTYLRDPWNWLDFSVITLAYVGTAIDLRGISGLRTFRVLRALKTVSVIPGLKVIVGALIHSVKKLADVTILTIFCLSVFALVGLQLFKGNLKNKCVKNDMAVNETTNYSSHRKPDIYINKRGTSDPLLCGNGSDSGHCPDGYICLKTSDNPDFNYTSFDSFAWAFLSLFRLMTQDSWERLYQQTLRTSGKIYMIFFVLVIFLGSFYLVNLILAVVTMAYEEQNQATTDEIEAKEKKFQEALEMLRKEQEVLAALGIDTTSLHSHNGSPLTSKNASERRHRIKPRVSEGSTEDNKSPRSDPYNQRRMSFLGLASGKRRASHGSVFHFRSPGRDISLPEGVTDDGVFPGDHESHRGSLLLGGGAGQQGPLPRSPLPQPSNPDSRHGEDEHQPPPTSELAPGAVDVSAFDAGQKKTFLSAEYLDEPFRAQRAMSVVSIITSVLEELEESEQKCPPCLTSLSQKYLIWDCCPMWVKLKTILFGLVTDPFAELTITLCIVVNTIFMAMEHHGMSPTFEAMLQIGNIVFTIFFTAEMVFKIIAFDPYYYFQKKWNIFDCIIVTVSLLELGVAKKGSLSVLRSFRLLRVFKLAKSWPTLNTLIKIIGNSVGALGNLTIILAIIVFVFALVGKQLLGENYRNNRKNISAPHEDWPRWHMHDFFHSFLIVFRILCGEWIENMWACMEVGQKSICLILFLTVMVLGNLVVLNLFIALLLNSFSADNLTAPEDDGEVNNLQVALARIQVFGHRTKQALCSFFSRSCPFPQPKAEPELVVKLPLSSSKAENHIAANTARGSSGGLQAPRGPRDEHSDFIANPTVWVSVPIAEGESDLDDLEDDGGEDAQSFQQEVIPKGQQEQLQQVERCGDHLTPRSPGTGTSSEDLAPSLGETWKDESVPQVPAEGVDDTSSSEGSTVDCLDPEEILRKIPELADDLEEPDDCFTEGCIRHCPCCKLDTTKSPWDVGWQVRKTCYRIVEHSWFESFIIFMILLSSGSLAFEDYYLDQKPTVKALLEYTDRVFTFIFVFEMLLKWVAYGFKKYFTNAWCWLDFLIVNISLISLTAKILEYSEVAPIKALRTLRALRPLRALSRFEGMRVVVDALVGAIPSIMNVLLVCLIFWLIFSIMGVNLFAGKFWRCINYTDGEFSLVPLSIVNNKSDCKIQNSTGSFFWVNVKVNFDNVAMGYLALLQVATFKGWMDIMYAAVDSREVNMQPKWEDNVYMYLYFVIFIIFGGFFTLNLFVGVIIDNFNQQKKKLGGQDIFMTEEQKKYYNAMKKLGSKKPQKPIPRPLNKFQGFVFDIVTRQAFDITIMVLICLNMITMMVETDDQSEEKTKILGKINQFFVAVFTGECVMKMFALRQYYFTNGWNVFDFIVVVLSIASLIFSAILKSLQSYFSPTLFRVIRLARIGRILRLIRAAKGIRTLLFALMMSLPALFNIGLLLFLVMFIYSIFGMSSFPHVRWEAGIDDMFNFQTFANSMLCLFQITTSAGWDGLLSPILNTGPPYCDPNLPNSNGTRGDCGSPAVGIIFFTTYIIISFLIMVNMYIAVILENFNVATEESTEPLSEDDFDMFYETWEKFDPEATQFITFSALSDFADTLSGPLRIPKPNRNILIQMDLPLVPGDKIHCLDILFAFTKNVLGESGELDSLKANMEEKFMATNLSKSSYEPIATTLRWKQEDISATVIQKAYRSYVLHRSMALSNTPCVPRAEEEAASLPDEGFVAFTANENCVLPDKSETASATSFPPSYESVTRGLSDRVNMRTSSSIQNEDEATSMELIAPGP
Format: cell-based
How it was run: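 HEK cells with truncated human NaV1.8 plus KIR2.1 BacMam, hexyl dye loaded 20 min, compound 30 min at room temperature, 11-point 3-fold series […], 0.625% DMSO, with or without human serum. E-VIPR biphasic stimulation at 10 Hz for 10 s; membrane-potential response read as normalized coumarin/oxonol ratio.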
For `COc1cc(OC(F)(F)F)ccc1Oc1cc(C(F)F)cc(C)c1C(=O)Nc1ccnc(C(N)=O)c1` [Compound 200, 4-[[4-(difluoromethyl)-2-[2-methoxy-4-(trifluoromethoxy)phenoxy]-6-methyl-benzoyl]amino]pyridine-2-carboxamide], the IC50 was 85 nM.
`COc1cc(OC(F)(F)F)ccc1Oc1cc(C2CC2)c(C2CC2)nc1C(=O)Nc1ccnc(C(N)=O)c1` [Compound 201, N-(2-carbamoyl-4-pyridyl)-5,6-dicyclopropyl-3-[2-methoxy-4-(trifluoromethoxy)phenoxy]pyridine-2-carboxamide] showed an IC50 of 530 nM.
Work on `COc1cc(OC(F)(F)F)ccc1Oc1cc2c(c(C)c1C(=O)Nc1ccnc(C(N)=O)c1)OC(F)(F)O2` [Compound 202, 4-[[2,2-difluoro-6-[2-methoxy-4-(trifluoromethoxy)phenoxy]-4-methyl-1,3-benzodioxole-5-carbonyl]amino]pyridine-2-carboxamide] yielded an IC50 of 6 nM.
`COc1cc(OC(F)(F)F)ccc1Oc1cc2c(c(C)c1C(=O)Nc1ccc(C(N)=O)nc1)OC(F)(F)O2` [Compound 203] showed an IC50 of 140 nM.
With `COc1cc(OC(F)(F)F)ccc1Oc1ccc(OC2CC(F)(F)C2)c(C)c1C(=O)Nc1ccnc(C(N)=O)c1` [Compound 204, 4-[[3-(3,3-Difluorocyclobutoxy)-6-[2-Methoxy-4-(Trifluoromethoxy)Phenoxy]-2-Methyl-Benzoyl]Amino]Pyridine-2-Carboxamide] the IC50 was 170 nM.
Work on `COc1cc(OC(F)(F)F)ccc1Oc1cc(C2CC2)c(C2CC2)nc1C(=O)Nc1ccc(C(N)=O)nc1` [Compound 205, N-(6-carbamoyl-3-pyridyl)-5,6-dicyclopropyl-3-[2-methoxy-4-(trifluoromethoxy)phenoxy]pyridine-2-carboxamide] yielded an IC50 of 1100 nM.
`NC(=O)c1ccc(NC(=O)c2c(Oc3ccc(OC(F)(F)F)cc3C3CC3)ccc(C(F)(F)F)c2F)cn1` [Compound 206, 5-[[6-[2-cyclopropyl-4-(trifluoromethoxy)phenoxy]-2-fluoro-3-(trifluoromethyl)benzoyl]amino]pyridine-2-carboxamide] gave an IC50 of 360 nM.
For `Cc1c(Oc2ccc(C(F)(F)F)c(F)c2C(=O)Nc2ccc(C(N)=O)nc2)ccc(F)c1F` [Compound 207, 5-[[6-(3,4-difluoro-2-methyl-phenoxy)-2-fluoro-3-(trifluoromethyl)benzoyl]amino]pyridine-2-carboxamide], the IC50 was 370 nM.
With `Cc1cc(Cl)cc(C)c1Oc1ccc(C(F)(F)F)c(F)c1C(=O)Nc1ccc(C(N)=O)nc1` [Compound 208, 5-[[6-(4-chloro-2,6-dimethyl-phenoxy)-2-fluoro-3-(trifluoromethyl)benzoyl]amino]pyridine-2-carboxamide] the IC50 was > 3000 nM.
Compound `COc1c(Oc2ccc(C(F)(F)F)c(F)c2C(=O)Nc2ccc(C(N)=O)nc2)ccc(OC(F)(F)F)c1F` [Compound 209, 5-[[2-fluoro-6-[3-fluoro-2-methoxy-4-(trifluoromethoxy)phenoxy]-3-(trifluoromethyl)benzoyl]amino]pyridine-2-carboxamide] has an IC50 of 8 nM.
Work on `COc1cc(C(F)(F)C(F)(F)F)ccc1Oc1ccc(C(F)(F)F)c(F)c1C(=O)Nc1ccc(C(N)=O)nc1` [Compound 210, 5-[[2-fluoro-6-[2-methoxy-4-(1,1,2,2,2-pentafluoroethyl)phenoxy]-3-(trifluoromethyl)benzoyl]amino]pyridine-2-carboxamide] yielded an IC50 of 280 nM.
For `COc1cc(C)cc(OC)c1Oc1ccc(C(F)(F)F)c(F)c1C(=O)Nc1ccc(C(N)=O)nc1` [Compound 211, 5-[[6-(2,6-dimethoxy-4-methyl-phenoxy)-2-fluoro-3-(trifluoromethyl)benzoyl]amino]pyridine-2-carboxamide], the IC50 was > 3000 nM.
In the case of `NC(=O)c1ccc(NC(=O)c2c(Oc3c(F)cc(F)cc3F)ccc(C(F)(F)F)c2F)cn1` [Compound 212, 5-[[2-fluoro-3-(trifluoromethyl)-6-(2,4,6-trifluorophenoxy)benzoyl]amino]pyridine-2-carboxamide], the IC50 is reported as > 3000 nM.
In the case of `Cc1cc(Cl)cc(Cl)c1Oc1ccc(C(F)(F)F)c(F)c1C(=O)Nc1ccc(C(N)=O)nc1` [Compound 213, 5-[[6-(2,4-dichloro-6-methyl-phenoxy)-2-fluoro-3-(trifluoromethyl)benzoyl]amino]pyridine-2-carboxamide], the IC50 is reported as > 3000 nM.
For `Cc1c(F)ccc(Oc2ccc(C(F)(F)F)c(F)c2C(=O)Nc2ccc(C(N)=O)nc2)c1C` [Compound 214, 5-[[2-fluoro-6-(4-fluoro-2,3-dimethyl-phenoxy)-3-(trifluoromethyl)benzoyl]amino]pyridine-2-carboxamide], the IC50 was > 3000 nM.
Compound `NC(=O)c1ccc(NC(=O)c2c(Oc3ccc(F)c(F)c3F)ccc(C(F)(F)F)c2F)cn1` [Compound 215, 5-[[2-fluoro-3-(trifluoromethyl)-6-(2,3,4-trifluorophenoxy)benzoyl]amino]pyridine-2-carboxamide] has an IC50 of 570 nM.
For `NC(=O)c1ccc(NC(=O)c2c(Oc3ccc(OC(F)(F)F)c(F)c3)ccc(C(F)(F)F)c2F)cn1` [Compound 216, 5-[[2-fluoro-6-[3-fluoro-4-(trifluoromethoxy)phenoxy]-3-(trifluoromethyl)benzoyl]amino]pyridine-2-carboxamide], the IC50 was 340 nM.
`NC(=O)c1ccc(NC(=O)c2c(Oc3ccc(OC(F)(F)F)c(Cl)c3)ccc(C(F)(F)F)c2F)cn1` [Compound 217, 5-[[6-[3-chloro-4-(trifluoromethoxy)phenoxy]-2-fluoro-3-(trifluoromethyl)benzoyl]amino]pyridine-2-carboxamide] gave an IC50 of 160 nM.
In the case of `Cc1cc(Cl)ccc1Oc1ccc(C(F)(F)F)c(F)c1C(=O)Nc1ccc(C(N)=O)nc1` [Compound 218, 5-[[6-(4-chloro-2-methyl-phenoxy)-2-fluoro-3-(trifluoromethyl)benzoyl]amino]pyridine-2-carboxamide], the IC50 is reported as 735 nM.
For `NC(=O)c1ccc(NC(=O)c2c(Oc3ccc(Cl)cc3F)ccc(C(F)(F)F)c2F)cn1` [Compound 219, 5-[[6-(4-chloro-2-fluoro-phenoxy)-2-fluoro-3-(trifluoromethyl)benzoyl]amino]pyridine-2-carboxamide], the IC50 was 1500 nM.
`COc1cc(Cl)ccc1Oc1ccc(C(F)(F)F)c(F)c1C(=O)Nc1ccc(C(N)=O)nc1` [Compound 220, 5-[[6-(4-chloro-2-methoxy-phenoxy)-2-fluoro-3-(trifluoromethyl)benzoyl]amino]pyridine-2-carboxamide] gave an IC50 of 530 nM.
In the case of `NC(=O)c1ccc(NC(=O)c2c(Oc3ccc(OC(F)(F)F)cc3F)ccc(C(F)(F)F)c2F)cn1` [Compound 221, 5-[[2-fluoro-6-[2-fluoro-4-(trifluoromethoxy)phenoxy]-3-(trifluoromethyl)benzoyl]amino]pyridine-2-carboxamide], the IC50 is reported as 430 nM.
`Cc1cc(OC(F)(F)F)ccc1Oc1ccc(C(F)(F)F)c(F)c1C(=O)Nc1ccc(C(N)=O)nc1` [Compound 222, 5-[[2-fluoro-6-[2-methyl-4-(trifluoromethoxy)phenoxy]-3-(trifluoromethyl)benzoyl]amino]pyridine-2-carboxamide] was tested, and the IC50 was 120 nM.
`NC(=O)c1ccc(NC(=O)c2c(Oc3ccc(OC(F)(F)F)cc3Cl)ccc(C(F)(F)F)c2F)cn1` [Compound 223, 5-[[6-[2-chloro-4-(trifluoromethoxy)phenoxy]-2-fluoro-3-(trifluoromethyl)benzoyl]amino]pyridine-2-carboxamide] showed an IC50 of 130 nM.
With `COc1c(Oc2ccc(C(F)(F)F)c(C)c2C(=O)Nc2ccc(C(N)=O)nc2)ccc(OC(F)(F)F)c1F` [Compound 224, 5-[[6-[3-fluoro-2-methoxy-4-(trifluoromethoxy)phenoxy]-2-methyl-3-(trifluoromethyl)benzoyl]amino]pyridine-2-carboxamide] the IC50 was 6 nM.
`Cc1c(C(F)(F)F)ccc(Oc2ccc(F)c(F)c2F)c1C(=O)Nc1ccc(C(N)=O)nc1` [Compound 225, 5-[[2-methyl-3-(trifluoromethyl)-6-(2,3,4-trifluorophenoxy)benzoyl]amino]pyridine-2-carboxamide] was tested, and the IC50 was 1500 nM.
For `Cc1c(C(F)(F)F)ccc(Oc2ccc(OC(F)(F)F)cc2C2CC2)c1C(=O)Nc1ccc(C(N)=O)nc1` [Compound 226, 5-[[6-[2-cyclopropyl-4-(trifluoromethoxy)phenoxy]-2-methyl-3-(trifluoromethyl)benzoyl]amino]pyridine-2-carboxamide], the IC50 was 140 nM.
`Cc1c(Oc2ccc(C(F)(F)F)c(C)c2C(=O)Nc2ccc(C(N)=O)nc2)ccc(F)c1F` [Compound 227, 5-[[6-(3,4-difluoro-2-methyl-phenoxy)-2-methyl-3-(trifluoromethyl)benzoyl]amino]pyridine-2-carboxamide] gave an IC50 of 610 nM.
In the case of `COc1cc(C)cc(OC)c1Oc1ccc(C(F)(F)F)c(C)c1C(=O)Nc1ccc(C(N)=O)nc1` [Compound 228, 5-[[6-(2,6-dimethoxy-4-methyl-phenoxy)-2-methyl-3-(trifluoromethyl)benzoyl]amino]pyridine-2-carboxamide], the IC50 is reported as > 3000 nM.
`Cc1cc(Cl)cc(C)c1Oc1ccc(C(F)(F)F)c(C)c1C(=O)Nc1ccc(C(N)=O)nc1` [Compound 229, 5-[[6-(4-chloro-2,6-dimethyl-phenoxy)-2-methyl-3-(trifluoromethyl)benzoyl]amino]pyridine-2-carboxamide] was tested, and the IC50 was > 3000 nM.
In the case of `Cc1c(C(F)(F)F)ccc(Oc2c(F)cc(F)cc2F)c1C(=O)Nc1ccc(C(N)=O)nc1` [Compound 230, 5-[[2-methyl-3-(trifluoromethyl)-6-(2,4,6-trifluorophenoxy)benzoyl]amino]pyridine-2-carboxamide], the IC50 is reported as > 3000 nM.
In the case of `Cc1c(F)ccc(Oc2ccc(C(F)(F)F)c(C)c2C(=O)Nc2ccc(C(N)=O)nc2)c1C` [Compound 231, 5-[[6-(4-fluoro-2,3-dimethyl-phenoxy)-2-methyl-3-(trifluoromethyl)benzoyl]amino]pyridine-2-carboxamide], the IC50 is reported as > 3000 nM.
`COc1cc(F)ccc1Oc1ccc(C(F)(F)F)c(C)c1C(=O)Nc1ccc(C(N)=O)nc1` [Compound 232, 5-[[6-(4-fluoro-2-methoxy-phenoxy)-2-methyl-3-(trifluoromethyl)benzoyl]amino]pyridine-2-carboxamide] showed an IC50 of 1500 nM.

— patent US12441703B2, “Carboxamides as modulators of sodium channels” (VERTEX PHARMACEUTICALS INCORPORATED, priority 2019, dated 2025)
